# Experimental data from ChEMBL document CHEMBL1140387, “1-Aryl-3,4-dihydro-1H-quinolin-2-one derivatives, novel and selective norepinephrine reuptake inhibitors” (Bioorg Med Chem Lett, 2005).
# What was measured:
# [1] = biological target: T1, Sodium-dependent serotonin transporter (Homo sapiens, UniProt P31645); experiment: Percentage displacement of [3H]citalopram radioligand from serotonin transporter at concentration of 100 nM
# Target sequence in this assay (P31645 whole entry, looked up): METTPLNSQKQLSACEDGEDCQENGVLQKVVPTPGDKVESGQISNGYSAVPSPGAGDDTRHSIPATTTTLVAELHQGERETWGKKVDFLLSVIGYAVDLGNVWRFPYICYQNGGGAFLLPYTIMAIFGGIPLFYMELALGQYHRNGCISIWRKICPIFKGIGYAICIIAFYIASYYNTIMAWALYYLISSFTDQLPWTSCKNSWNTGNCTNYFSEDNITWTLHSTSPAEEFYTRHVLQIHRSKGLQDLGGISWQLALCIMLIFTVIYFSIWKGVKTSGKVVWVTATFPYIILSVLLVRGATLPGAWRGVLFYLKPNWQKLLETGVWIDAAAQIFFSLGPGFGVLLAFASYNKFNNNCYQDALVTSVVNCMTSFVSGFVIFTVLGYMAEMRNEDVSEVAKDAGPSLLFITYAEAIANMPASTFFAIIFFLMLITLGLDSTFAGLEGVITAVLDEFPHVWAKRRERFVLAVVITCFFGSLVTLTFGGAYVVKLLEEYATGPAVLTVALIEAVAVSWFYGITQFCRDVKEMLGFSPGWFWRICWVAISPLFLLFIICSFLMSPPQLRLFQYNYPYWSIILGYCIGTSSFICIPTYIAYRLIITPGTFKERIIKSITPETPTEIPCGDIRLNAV
# [2] = biological target: T2, Sodium-dependent dopamine transporter (Homo sapiens, UniProt Q01959); experiment: Inhibition of monoamine reuptake at dopamine transporter
# T2 sequence (Q01959 whole entry): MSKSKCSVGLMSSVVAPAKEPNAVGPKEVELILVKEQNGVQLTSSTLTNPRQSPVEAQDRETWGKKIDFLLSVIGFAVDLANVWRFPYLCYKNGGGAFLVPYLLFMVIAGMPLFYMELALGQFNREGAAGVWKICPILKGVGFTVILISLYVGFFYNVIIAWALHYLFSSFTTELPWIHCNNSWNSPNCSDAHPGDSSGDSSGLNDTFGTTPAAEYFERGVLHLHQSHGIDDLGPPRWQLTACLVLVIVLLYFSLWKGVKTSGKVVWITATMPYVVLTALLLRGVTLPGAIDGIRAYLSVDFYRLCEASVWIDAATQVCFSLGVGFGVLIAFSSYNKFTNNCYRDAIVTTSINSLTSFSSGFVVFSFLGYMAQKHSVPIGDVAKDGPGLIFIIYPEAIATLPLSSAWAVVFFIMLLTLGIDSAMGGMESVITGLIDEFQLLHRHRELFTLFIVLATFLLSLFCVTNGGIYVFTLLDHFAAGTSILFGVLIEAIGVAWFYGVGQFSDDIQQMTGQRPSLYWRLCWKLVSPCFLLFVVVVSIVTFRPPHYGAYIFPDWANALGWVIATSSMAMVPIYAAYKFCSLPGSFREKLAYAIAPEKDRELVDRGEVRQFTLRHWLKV
# [3] = biological target: T2, Sodium-dependent dopamine transporter; experiment: Percentage displacement of [3H]WIN-35428 radioligand from dopamine transporter at concentration of 1000 nM
# [4] = biological target: T3, Sodium-dependent noradrenaline transporter (Homo sapiens, UniProt P23975); experiment: Inhibition of monoamine reuptake at norepinephrine transporter
# T3 sequence (P23975 whole entry): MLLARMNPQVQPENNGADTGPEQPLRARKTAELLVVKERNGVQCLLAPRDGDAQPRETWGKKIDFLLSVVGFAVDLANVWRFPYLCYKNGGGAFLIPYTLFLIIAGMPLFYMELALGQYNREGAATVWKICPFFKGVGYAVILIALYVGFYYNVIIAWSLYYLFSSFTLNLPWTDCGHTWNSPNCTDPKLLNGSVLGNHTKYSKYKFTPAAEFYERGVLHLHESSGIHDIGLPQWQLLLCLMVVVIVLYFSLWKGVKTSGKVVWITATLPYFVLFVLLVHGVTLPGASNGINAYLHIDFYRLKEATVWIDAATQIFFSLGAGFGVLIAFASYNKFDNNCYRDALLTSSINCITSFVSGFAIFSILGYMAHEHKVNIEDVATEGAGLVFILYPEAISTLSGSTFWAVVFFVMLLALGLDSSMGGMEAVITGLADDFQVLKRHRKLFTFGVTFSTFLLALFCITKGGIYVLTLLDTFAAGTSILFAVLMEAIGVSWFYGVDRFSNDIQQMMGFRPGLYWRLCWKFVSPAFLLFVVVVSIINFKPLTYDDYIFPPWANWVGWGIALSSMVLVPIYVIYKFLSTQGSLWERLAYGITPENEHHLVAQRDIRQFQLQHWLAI
# [5] = biological target: T1, Sodium-dependent serotonin transporter; experiment: Inhibition of monoamine reuptake at serotonin transporter
# Target sequence in this assay (P31645 whole entry): as the sequence (P31645 whole entry, looked up) above
# [6] = biological target: T3, Sodium-dependent noradrenaline transporter; experiment: Percentage displacement of [3H]nisoxetine radioligand from norepinephrine transporter at concentration of 1000 nM
SMILES,Activity [1] [%],Ki [2] [nM],Activity [3] [%],Ki [4] [nM],Ki [5] [nM],Activity [6] [%]
CNCCCCC1Cc2ccccc2N(c2ccccc2)C1=O (centres undefined),-3,> 200,12,> 200,> 100,53
CNCCCC1(C)Cc2ccccc2N(c2ccccc2)C1=O (racemic),9,> 200,10,44,> 100,–
CNCCCC1Cc2ccccc2N(c2cccc(Cl)c2)C1=O (racemic),7,> 200,64,79,> 100,–
CNCCCC1Cc2ccccc2N(c2ccc(F)cc2)C1=O (racemic),7,> 200,5,92,> 100,–
CNCCCC1(C)Cc2ccccc2N(c2ccc(F)c(F)c2)C1=O (racemic),11,> 200,50,77,> 100,–
CCc1ccc(N2C(=O)C(CCCNC)Cc3ccccc32)cc1 (racemic),3,> 200,9,150,> 100,–
CNCCCC1(C)Cc2ccccc2N(c2ccc(C(C)C)cc2)C1=O (racemic),5,> 200,2,> 200,> 100,18
CNCCCC1(C)Cc2cc(Cl)ccc2N(c2ccc(C)cc2)C1=O (racemic),15,–,–,43,> 100,–
CNCCCC1Cc2ccccc2N(c2ccc(Cl)c(Cl)c2)C1=O (racemic),8,13,–,62,> 100,–
CNCCCC1(C)Cc2ccccc2N(c2cc(F)cc(F)c2)C1=O (racemic),9,> 200,19,165,> 100,–
CCC1(CCCNC)Cc2cc(Cl)ccc2N(c2ccc(C)cc2)C1=O (racemic),–,> 200,3,47,128,–
CNCCCC1(C)Cc2ccccc2N(c2cccc(C)c2)C1=O (racemic),9,> 200,9,146,> 100,–
CNCCCC1Cc2ccccc2N(c2ccc(C(F)(F)F)cc2)C1=O (racemic),1,> 200,12,1430,> 100,–
CNCCCC1(C)Cc2ccccc2N(c2cc(Cl)cc(Cl)c2)C1=O (racemic),10,> 200,41,> 200,> 100,39
CNCCCC1(C(C)C)Cc2ccccc2N(c2ccc(C)cc2)C1=O (racemic),–,> 200,7,150,–,–
CNCCCC1Cc2ccccc2N(c2ccccc2)C1=O (racemic) [listing 2 of 2 here],0,–,24,–,–,–
"CNCCC1Cc2ccccc2N(c2ccccc2)C1=O (single isomer, unassigned; isomer 1) [listing 1 of 2 here]",–,> 200,–,38,> 100,–
"CNCCC1Cc2ccccc2N(c2ccccc2)C1=O (single isomer, unassigned; isomer 1) [listing 2 of 2 here]",1,–,13,–,–,–
"CNCCCC1Cc2ccccc2N(c2ccccc2)C1=O (single isomer, unassigned; isomer 1) [listing 2 of 2 here]",5,–,11,–,–,–
CNCCC1Cc2ccccc2N(c2ccccc2)C1=O (stereo in doubt) [listing 1 of 2 here],–,> 200,–,54,> 100,–
CNCCCC1Cc2ccccc2N(c2ccccc2)C1=O (stereo in doubt) [listing 1 of 2 here],–,> 200,–,190,> 100,–
CNCCC1Cc2ccccc2N(c2ccccc2)C1=O (stereo in doubt) [listing 2 of 2 here],9,–,9,–,–,–
CNCCCC1Cc2ccccc2N(c2ccccc2)C1=O (stereo in doubt) [listing 2 of 2 here],4,–,5,–,–,–

# More lines, main results first:
Activity [1] [%],Ki [2] [nM],Activity [3] [%],Ki [4] [nM],Ki [5] [nM],SMILES,Activity [6] [%]
8,> 200,50,21,> 100,CNCCCC1Cc2ccccc2N(c2ccc(Cl)cc2)C1=O (centres undefined),–
45,> 200,5,5,> 100,CNCCCC1Cc2cc(F)ccc2N(c2ccc(C)cc2)C1=O (racemic),–
–,> 200,18,8,–,CCCCC1(CCCNC)Cc2ccccc2N(c2ccc(C)cc2)C1=O (racemic),–
–,> 200,–,10,> 100,CNCCCC1Cc2ccccc2N(c2ccccc2)C1=O (racemic) [listing 1 of 2 here],–
9,> 200,10,18,> 100,CNCCCC1Cc2ccccc2N(c2cccc(F)c2)C1=O (racemic),–
11,> 200,11,17,> 100,CCC1(CCCNC)Cc2ccccc2N(c2ccc(C)cc2)C1=O (racemic),–
12,> 200,6,10,> 100,CCC1(CCCNC)Cc2ccccc2N(c2ccccc2)C1=O (racemic),–
15,> 200,19,3,> 100,CNCCCC1Cc2ccccc2N(c2ccc(C)cc2)C1=O (racemic),–
12,> 200,3,9,> 100,CNCCCC1(C)Cc2ccccc2N(c2ccc(C)cc2)C1=O (racemic),–
51,> 200,3,7,> 100,CCCC1(CCCNC)Cc2ccccc2N(c2ccccc2)C1=O (racemic),–
–,> 200,9,11,160,CCCC1(CCCNC)Cc2ccccc2N(c2ccc(C)cc2)C1=O (racemic),–
15,> 200,7,6,> 100,CNCCCC1Cc2cc(Cl)ccc2N(c2ccc(C)cc2)C1=O (racemic),–
–,> 200,–,8,> 100,"CNCCCC1Cc2ccccc2N(c2ccccc2)C1=O (single isomer, unassigned; isomer 1) [listing 1 of 2 here]",–
